Laboratory results: PMC8874853 (Molecules, 2022)
Read-outs that look alike come from different tables or passages of the source.

Columns and labels:
BSA Site I / Site II [1] = target: T1, BSA Site I / Site II (Bos taurus, UniProt P02769); test: Site marker studies with phenylbutazone (Site I) and ibuprofen (Site II); format: binding, bovine
T1 construct: purchased Sigma-Aldrich (St. Louis, MO, USA)

serum proteins [2] = details: humans; cited from earlier work
serum proteins [3] = details: mice; cited from earlier work
serum proteins [4] = details: rats; cited from earlier work
[5] = target: bovine serum albumin (BSA) (Bos taurus, UniProt P02769); test: Fluorescence quenching of BSA by ligand (binary and ternary systems; Stern Volmer, double log and van't Hoff analysis); format: binding
bovine serum albumin (BSA), sequence (P02769 25-607): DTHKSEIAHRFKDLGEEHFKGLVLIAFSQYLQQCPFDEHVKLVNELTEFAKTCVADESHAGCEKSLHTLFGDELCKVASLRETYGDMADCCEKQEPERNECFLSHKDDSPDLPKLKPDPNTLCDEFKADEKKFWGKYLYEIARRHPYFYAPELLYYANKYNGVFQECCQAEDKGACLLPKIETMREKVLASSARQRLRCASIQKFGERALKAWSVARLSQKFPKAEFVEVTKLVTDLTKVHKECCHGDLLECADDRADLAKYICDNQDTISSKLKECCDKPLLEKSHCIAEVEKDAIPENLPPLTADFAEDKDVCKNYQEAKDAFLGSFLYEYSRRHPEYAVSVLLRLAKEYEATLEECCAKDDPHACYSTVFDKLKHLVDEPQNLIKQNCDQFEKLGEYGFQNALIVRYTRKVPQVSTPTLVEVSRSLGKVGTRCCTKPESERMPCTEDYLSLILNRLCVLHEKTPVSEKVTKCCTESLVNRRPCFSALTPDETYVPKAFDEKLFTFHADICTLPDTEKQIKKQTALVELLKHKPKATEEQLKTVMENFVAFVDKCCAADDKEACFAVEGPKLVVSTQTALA
Description: The spectrofluorometer FP-8200 (JASCO, Hachioji, Tokyo, Japan) was used to measure the fluorescence spectra. […] The inner filter effects were corrected for the reabsorption of emitted light using the equation [35]: Fcor=Fobs×e^(Aex+Aem)/2
Fcor and Fobs are the corrected and observed fluorescence in the above equation, respectively, and Aex and Aem are excitation and emission wavelengths absorbance values, respectively.
The fluorescence spectra for the protein BSA for the binary and the ternary system were recorded at 280 nm (excitation wavelength) and an emission wavelength of 300–500 nm (Figure 1a–c). […] (1) kq=Ksv/τ0 where F0 is BSA’s fluorescence intensity, and F is BSA’s fluorescence intensity in the presence of quencher. Stern Volmer constant is given as Ksv, and (Q) is quencher concentration. The kq biomolecular quenching constant and τ0 the lifetime of the fluorophore in the absence of quencher and is valued at 10^−8 s for biopolymers.
The binding constants and binding stoichiometry are were determined using a double logarithmic regression plot derived from the equation: log(F0−F)/F=log Kb+n log[Q] .

BSA Site I / Site II [6] = target: T1, BSA Site I / Site II; parameters: method as in PMID 28513070, PMID 34946608; details: cited from earlier work

T1 sequence (P02769 25-607): as above

influence of phenylbutazone on quenching behavior and binding constant of BSA-ERL (BSA Site I / Site II [1]; Site I marker phenylbutazone)	binding constants of BSA-ERL in the presence and absence of ibuprofen (BSA Site I / Site II [1]; Site II marker ibuprofen)	binding site on BSA (BSA Site I / Site II [1]; site markers phenylbutazone and ibuprofen)	SMILES	binding to serum proteins (serum proteins [2]) [%]	binding to serum proteins (serum proteins [3]) [%]	binding to serum proteins (serum proteins [4]) [%]	bimolecular quenching constant kq ([5]; binary system, 298 K, kq = Ksv/τ0, τ0 10^−8 s)	Stern Volmer constant Ksv ± SD ([5]; binary system, BSA 1.5 μM, 298 K)	further reduction of fluorescence intensity of the BSA-ERL system by presence of QUR ([5]; difference ternary vs binary system) [%]	binding site on BSA (BSA Site I / Site II [6])
strongly influenced	similar	Site I	C#Cc1cccc(Nc2ncnc3cc(OCCOC)c(OCCOC)cc23)c1 [ERL, Erlotinib]	92	95	92	–	–	–	–
–	–	–	O=c1c(O)c(-c2ccc(O)c(O)c2)oc2cc(O)cc(O)c12 [QUR, Quercetin]	–	–	–	46.07 × 10^12 M^−1S^−1	460,702 ± 1875 M^−1	26	Site I
